Reference: US20130324412A1, “N-ALKOXYAMIDES OF 6-(SUBSTITUTED PHENYL)-4-AMINOPICOLINATES AND 2-(SUBSTITUTED PHENYL)-6-AMINO-4-PYRIMIDINECARBOXYLATES AND THEIR USE AS SELECTIVE HERBICIDES FOR CROPS” (DOW AGROSCIENCES LLC, priority 2009, published 2013)

What was measured:
Format in all cases: in vivo
corn (Zea mays) = assay: General postemergence herbicidal activity, corn; conditions: post-emergence, 336 h, postemergence, after 14 d, 0 = no injury, 100 = complete kill, read-out: ZEAMX % Visual Injury; for plant injury at 35 g/ha: 35 g ai/ha; for plant injury at 70 g/ha: 70 g ai/ha; for plant injury at 280 g/ha: 280 g ai/ha; for plant injury at 140 g/ha: 140 g ai/ha
Method: (§1) Seeds or nutlets of the desired test plant species were planted in Sun Gro MetroMix® 360 planting mixture, which typically has a pH of 6.0 to 6.8 and an organic matter content of about 30 percent, in plastic pots with a surface area of 64 square centimeters (cm^2). When required to ensure good germination and healthy plants, a fungicide treatment and/or other chemical or physical treatment was applied. The plants were grown for 7-21 days (d) in a greenhouse with an approximate 15-hour (h) photoperiod which was maintained at about 23-29° C. during the day and 22-28° C. during the night. Nutrients and water were added on a regular basis and supplemental lighting was provided with overhead metal halide 1000-Watt lamps as necessary. The plants were employed for testing when they reached the first or second true leaf stage.
(§2) A weighed amount, determined by the highest rate to be tested, of each test compound was dissolved in 4 mL of a 97:3 volume per volume (v/v) mixture of acetone and dimethyl sulfoxide (DMSO) to obtain concentrated stock solutions. […] The concentrated stock solutions obtained were diluted with 20 mL of an aqueous mixture containing acetone, water, isopropyl alcohol, DMSO, Atplus 411F crop oil concentrate, and Triton X-155 surfactant in a 48.5:39:10:1.5:1.0:0.02 v/v ratio to obtain spray solutions containing the highest application rates. Additional application rates were obtained by serial dilution of 12 mL of the high rate solution into a solution containing 2 mL of 97:3 v/v mixture of acetone and DMSO and 10 mL of an aqueous mixture containing acetone, water, isopropyl alcohol, DMSO, Atplus 411F crop oil concentrate, and Triton X-155 surfactant in a 48.5:39:10:1.5:1.0:0.02 v/v ratio to obtain ½×, ¼×, ⅛× and 1/16× rates of the high rate. Compound requirements are based upon a 12 mL application volume at a rate of 187 liters per hectare (L/ha). Formulated compounds were applied to the plant material with an overhead Mandel track sprayer equipped with 8002E nozzles calibrated to deliver 187 L/ha over an application area of 0.503 square meters (m^2) at a spray height of 18 inches (43 cm) above the average plant canopy height. Control plants were sprayed in the same manner with the solvent blank.
(§3) The treated plants and control plants were placed in a greenhouse as described above and watered by sub-irrigation to prevent wash-off of the test compounds. After 14 d, the condition of the test plants as compared with that of the untreated plants was determined visually and scored on a scale of 0 to 100 percent where 0 corresponds to no injury and 100 corresponds to complete kill.

[1] = system: velvetleaf (Abutilon theophrasti); assay: General postemergence herbicidal activity, velvetleaf; conditions: post-emergence, 336 h, postemergence, after 14 d, 0 = no injury, 100 = complete kill, read-out: ABUTH % Visual Injury; for pest or weed control at 35 g/ha: 35 g ai/ha; for pest or weed control at 70 g/ha: 70 g ai/ha; for pest or weed control at 280 g/ha: 280 g ai/ha; for pest or weed control at 140 g/ha: 140 g ai/ha
Method: as §1, §2, §3

[2] = system: lambsquarters (Chenopodium album); assay: General postemergence herbicidal activity, lambsquarters; conditions: post-emergence, 336 h, postemergence, after 14 d, 0 = no injury, 100 = complete kill, read-out: CHEAL % Visual Injury; for pest or weed control at 35 g/ha: 35 g ai/ha; for pest or weed control at 70 g/ha: 70 g ai/ha; for pest or weed control at 280 g/ha: 280 g ai/ha; for pest or weed control at 140 g/ha: 140 g ai/ha
Method: as §1, §2, §3

[3] = system: wild buckwheat (Polygonum convululus); assay: General postemergence herbicidal activity, wild buckwheat; conditions: post-emergence, 336 h, postemergence, after 14 d, 0 = no injury, 100 = complete kill, read-out: POLCO % Visual Injury; for pest or weed control at 35 g/ha: 35 g ai/ha; for pest or weed control at 70 g/ha: 70 g ai/ha; for pest or weed control at 280 g/ha: 280 g ai/ha; for pest or weed control at 140 g/ha: 140 g ai/ha
Method: as §1, §2, §3

Question: For COc1c(Cl)ccc(-c2cc(N)c(Cl)c(C(=O)NOCC3CC3)n2)c1F [Compound 32, 4-Amino-3-chloro-6-(4-chloro-2-fluoro-3-methoxyphenyl)-N-(cyclopropyl-methoxy)picolinamide], which plant injury at 35 g/ha (corn (Zea mays)) is on record?
Answer: 10%

Question: What about the pest or weed control at 35 g/ha [1] of the same compound?
Answer: 100%

Question: And the pest or weed control at 35 g/ha [2]?
Answer: 100%

Question: What about the pest or weed control at 35 g/ha [3] of the same compound?
Answer: 100%

Question: C=CC(C)ONC(=O)c1nc(-c2ccc(Cl)c(OC)c2F)cc(N)c1Cl (stereo not shown) [Compound 33, 4-Amino-N-(but-3-en-2-yloxy)-3-chloro-6-(4-chloro-2-fluoro-3-methoxy-phenyl)picolinamide] was tested. Which plant injury at 70 g/ha (corn (Zea mays)) did it give?
Answer: 10%

Question: What about the pest or weed control at 70 g/ha [1] of the same compound?
Answer: 100%

Question: And the pest or weed control at 70 g/ha [2]?
Answer: 100%

Question: And the pest or weed control at 70 g/ha [3]?
Answer: 100%

Question: For Nc1cc(Cl)nc(C(=O)NOCc2ccc(F)cc2)c1Cl [Compound 34, 4-Amino-3,6-dichloro-N-(4-fluorobenzyloxy)picolinamide], which plant injury at 280 g/ha (corn (Zea mays)) is on record?
Answer: 20%

Question: What about the pest or weed control at 280 g/ha [1] of the same compound?
Answer: 65%

Question: What about the pest or weed control at 280 g/ha [2] of the same compound?
Answer: 100%

Question: And the pest or weed control at 280 g/ha [3]?
Answer: 100%

Question: Which results are given for C=CCONC(=O)c1nc(-c2ccc(Cl)c(OC)c2F)nc(N)c1OC [Compound 35, N-(2-Propenyloxy)-6-amino-2-(4-chloro-2-fluoro-3-methoxyphenyl)-5-methoxypyrimidine-4-carboxamide]?
Answer: plant injury at 140 g/ha (corn (Zea mays)): 20%; pest or weed control at 140 g/ha [1]: 100%; pest or weed control at 140 g/ha [2]: 100%; pest or weed control at 140 g/ha [3]: 90%

Question: Which results are given for C=C(F)CONC(=O)c1nc(-c2ccc(Cl)c(OC)c2F)cc(N)c1Cl [Compound 37, 4-Amino-3-chloro-6-(4-chloro-2-fluoro-3-methoxyphenyl)-N-(2-fluoro-2-propenyl-oxy)picolinamide]?
Answer: plant injury at 17.5 g/ha (corn (Zea mays); 17.5 g ai/ha): 25%; pest or weed control at 17.5 g/ha ([1]; 17.5 g ai/ha): 100%; pest or weed control at 17.5 g/ha ([2]; 17.5 g ai/ha): 100%; pest or weed control at 17.5 g/ha ([3]; 17.5 g ai/ha): 100%

Question: Which plant injury at 35 g/ha (corn (Zea mays)) does the source give for C=CCCONC(=O)c1nc(-c2ccc(Cl)c(OC)c2F)cc(N)c1Cl [Compound 38, 4-Amino-N-(3-butenyloxy)-3-chloro-6-(4-chloro-2-fluoro-3-methoxyphenyl)picolinamide] here?
Answer: 35%

Question: And the pest or weed control at 35 g/ha [1]?
Answer: 100%

Question: What about the pest or weed control at 35 g/ha [2] of the same compound?
Answer: 100%

Question: And the pest or weed control at 35 g/ha [3]?
Answer: 100%

Question: Which results are given for COc1c(Cl)ccc(-c2cc(N)c(Cl)c(C(=O)N3CCCO3)n2)c1F [Compound 40, (4-Amino-3-chloro-6-(4-chloro-2-fluoro-3-methoxyphenyl)pyridin-2-yl)(isoxazolidin-2-yl)methanone]?
Answer: plant injury at 140 g/ha (corn (Zea mays)): 20%; pest or weed control at 140 g/ha [1]: 95%; pest or weed control at 140 g/ha [2]: 100%; pest or weed control at 140 g/ha [3]: 100%

Question: Which results are given for COc1c(Cl)ccc(-c2cc(N)c(Cl)c(C(=O)NOCc3ccco3)n2)c1F [Compound 42, 4-Amino-3-chloro-6-(4-chloro-2-fluoro-3-methoxyphenyl)-N-(furan-2-yl-methoxy)picolinamide]?
Answer: plant injury at 70 g/ha (corn (Zea mays)): 15%; pest or weed control at 70 g/ha [1]: 100%; pest or weed control at 70 g/ha [2]: 100%; pest or weed control at 70 g/ha [3]: 100%

Question: For COc1c(Cl)ccc(-c2cc(N)c(Cl)c(C(=O)NOCc3ccoc3)n2)c1F [Compound 43, 4-Amino-3-chloro-6-(4-chloro-2-fluoro-3-methoxyphenyl)-N-(furan-3-yl-methoxy)picolinamide], which plant injury at 140 g/ha (corn (Zea mays)) is on record?
Answer: 30%

Question: What about the pest or weed control at 140 g/ha [1] of the same compound?
Answer: 95%

Question: What about the pest or weed control at 140 g/ha [2] of the same compound?
Answer: 100%

Question: What about the pest or weed control at 140 g/ha [3] of the same compound?
Answer: 100%

Question: For COc1c(Cl)ccc(-c2cc(N)c(Cl)c(C(=O)NOCC3=CCCCC3)n2)c1F [Compound 44, 4-Amino-3-chloro-6-(4-chloro-2-fluoro-3-methoxyphenyl)-N-(cyclohexenyl-methoxy)picolinamide], which plant injury at 140 g/ha (corn (Zea mays)) is on record?
Answer: 5%

Question: What about the pest or weed control at 140 g/ha [1] of the same compound?
Answer: 98%

Question: And the pest or weed control at 140 g/ha [2]?
Answer: 98%

Question: And the pest or weed control at 140 g/ha [3]?
Answer: 100%

Question: How did the plant injury at 140 g/ha (corn (Zea mays)) turn out when CC/C=C/CONC(=O)c1nc(-c2ccc(Cl)c(OC)c2F)cc(N)c1Cl [Compound 45, (E)-4-Amino-3-chloro-6-(4-chloro-2-fluoro-3-methoxyphenyl)-N-(2-pentenyl-oxy)picolinamide] was run?
Answer: 30%

Question: What about the pest or weed control at 140 g/ha [1] of the same compound?
Answer: 100%

Question: What about the pest or weed control at 140 g/ha [2] of the same compound?
Answer: 100%

Question: And the pest or weed control at 140 g/ha [3]?
Answer: 100%

Question: How did the plant injury at 70 g/ha (corn (Zea mays)) turn out when CCCCONC(=O)c1nc(-c2ccc(Cl)c(OC)c2F)cc(N)c1Cl [Compound 46, 4-Amino-N-butoxy-3-chloro-6-(4-chloro-2-fluoro-3-methoxyphenyl)picolinamide] was run?
Answer: 25%

Question: What about the pest or weed control at 70 g/ha [1] of the same compound?
Answer: 100%

Question: What about the pest or weed control at 70 g/ha [2] of the same compound?
Answer: 100%

Question: What about the pest or weed control at 70 g/ha [3] of the same compound?
Answer: 100%

Question: With COCCONC(=O)c1nc(-c2ccc(Cl)c(OC)c2F)cc(N)c1Cl [Compound 49, 4-Amino-3-chloro-6-(4-chloro-2-fluoro-3-methoxyphenyl)-N-(2-methoxy-ethoxy)picolinamide] as the compound, how does the plant injury at 280 g/ha (corn (Zea mays)) read?
Answer: 0%

Question: What about the pest or weed control at 280 g/ha [1] of the same compound?
Answer: 100%

Question: What about the pest or weed control at 280 g/ha [2] of the same compound?
Answer: 100%

Question: And the pest or weed control at 280 g/ha [3]?
Answer: 100%

Question: For COc1c(Cl)ccc(-c2cc(N)c(Cl)c(C(=O)NOCCC#N)n2)c1F [Compound 50, 4-Amino-3-chloro-6-(4-chloro-2-fluoro-3-methoxyphenyl)-N-(2-cyanoethoxy)picolinamide], which plant injury at 280 g/ha (corn (Zea mays)) is on record?
Answer: 10%

Question: What about the pest or weed control at 280 g/ha [1] of the same compound?
Answer: 100%

Question: And the pest or weed control at 280 g/ha [2]?
Answer: 100%

Question: And the pest or weed control at 280 g/ha [3]?
Answer: 90%

Question: What does the source list for COCCOCONC(=O)c1nc(-c2ccc(Cl)c(OC)c2F)cc(N)c1Cl [Compound 51, 4-Amino-3-chloro-6-(4-chloro-2-fluoro-3-methoxyphenyl)-N-((2-methoxyethoxy)-methoxy)picolinamide]?
Answer: plant injury at 35 g/ha (corn (Zea mays)): 35%; pest or weed control at 35 g/ha [1]: 100%; pest or weed control at 35 g/ha [2]: 100%; pest or weed control at 35 g/ha [3]: 100%

Question: Which results are given for COc1c(Cl)ccc(-c2cc(N)c(Cl)c(C(=O)N3CC=CCO3)n2)c1F [Compound 52, (4-Amino-3-chloro-6-(4-chloro-2-fluoro-3-methoxyphenyl)pyridin-2-yl)(3,6-dihydro-2H-1,2-oxazin-2-yl)methanone]?
Answer: plant injury at 35 g/ha (corn (Zea mays)): 20%; pest or weed control at 35 g/ha [1]: 100%; pest or weed control at 35 g/ha [2]: 90%; pest or weed control at 35 g/ha [3]: 100%
